Results reported in PMC7658267, “Effects of CYP46A1 Inhibition on Long-Term-Depression in Hippocampal Slices ex vivo and 24S-Hydroxycholesterol Levels in Mice in vivo” (Frontiers in Molecular Neuroscience, 2020).
Like-named read-outs stand apart in the source and are kept apart here.

Columns and labels:
Assay in all cases: biochemical
CYP2C9 = CYP2C9 (Homo sapiens, UniProt P11712); set-up: CYP off-target inhibition panel
[1] = molecular target: T1, Human dopamine transporter (Homo sapiens, UniProt Q01959); set-up: CEREP off-target binding panel, per cent inhibition at 10 uM, n = 2
T1 construct: gene SLC6A3
T1 sequence (Q01959 whole entry): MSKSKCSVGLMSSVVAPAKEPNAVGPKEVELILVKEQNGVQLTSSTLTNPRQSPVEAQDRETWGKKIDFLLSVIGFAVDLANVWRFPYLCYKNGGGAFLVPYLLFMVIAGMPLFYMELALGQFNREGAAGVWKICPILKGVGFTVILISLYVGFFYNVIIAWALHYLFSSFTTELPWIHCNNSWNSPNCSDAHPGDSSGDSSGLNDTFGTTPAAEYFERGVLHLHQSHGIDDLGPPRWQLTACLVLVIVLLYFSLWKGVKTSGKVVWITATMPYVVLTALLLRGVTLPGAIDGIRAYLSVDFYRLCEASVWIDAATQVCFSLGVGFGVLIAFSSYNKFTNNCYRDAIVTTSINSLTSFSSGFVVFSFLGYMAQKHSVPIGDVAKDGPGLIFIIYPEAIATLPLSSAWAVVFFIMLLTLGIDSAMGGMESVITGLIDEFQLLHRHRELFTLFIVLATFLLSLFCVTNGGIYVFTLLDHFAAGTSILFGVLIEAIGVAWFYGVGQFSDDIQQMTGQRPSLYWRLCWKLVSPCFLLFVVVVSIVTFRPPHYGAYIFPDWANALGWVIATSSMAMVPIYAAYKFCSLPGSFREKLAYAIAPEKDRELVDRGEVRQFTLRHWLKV

CYP1A2 = CYP1A2 (Homo sapiens, UniProt P05177); set-up: CYP off-target inhibition panel
Human 5-HT transporter = molecular target: T2, Human 5-HT transporter (Homo sapiens, UniProt P31645); set-up: CEREP off-target binding panel, per cent inhibition at 10 uM, n = 2
T2 construct: gene SLC6A4
T2 sequence (P31645 whole entry): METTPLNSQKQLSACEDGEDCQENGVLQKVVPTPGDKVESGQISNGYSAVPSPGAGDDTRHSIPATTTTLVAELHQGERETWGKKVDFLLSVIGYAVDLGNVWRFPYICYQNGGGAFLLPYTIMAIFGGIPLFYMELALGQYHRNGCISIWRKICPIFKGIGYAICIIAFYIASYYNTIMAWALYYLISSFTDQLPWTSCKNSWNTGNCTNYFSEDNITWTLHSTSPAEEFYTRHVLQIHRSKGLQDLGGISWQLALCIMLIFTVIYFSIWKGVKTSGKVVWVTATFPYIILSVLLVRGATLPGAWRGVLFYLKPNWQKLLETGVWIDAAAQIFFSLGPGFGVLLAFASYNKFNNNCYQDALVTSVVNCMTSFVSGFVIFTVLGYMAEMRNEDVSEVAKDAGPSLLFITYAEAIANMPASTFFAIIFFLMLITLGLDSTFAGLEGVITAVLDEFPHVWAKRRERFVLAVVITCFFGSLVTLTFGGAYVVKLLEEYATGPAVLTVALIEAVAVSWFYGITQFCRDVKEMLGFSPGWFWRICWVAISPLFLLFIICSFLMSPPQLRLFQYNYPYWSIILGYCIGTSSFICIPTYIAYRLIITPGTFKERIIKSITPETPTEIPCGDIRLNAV

CYP2C19 = CYP2C19 (Homo sapiens, UniProt P33261); set-up: CYP off-target inhibition panel
CYP2C8 = CYP2C8 (Homo sapiens, UniProt P10632); set-up: CYP off-target inhibition panel
CYP2B6 = CYP2B6 (Homo sapiens, UniProt P20813); set-up: CYP off-target inhibition panel
Description: These examples have been of interest as tool compounds in commercial development (indicated by patent numbers in Figure 3). […] Initially, [compound left out] was utilized as substrate in this reaction owing to its improved solubility over cholesterol, enabling better run to run reproducibility ([Mast et al., 2003]).

MT1 = molecular target: T3, MT1 (Homo sapiens, UniProt P48039); set-up: CEREP radioligand binding panel, percent inhibition of specific binding
T3 construct: gene MTNR1A

GAL2 = molecular target: T4, GAL2 (Homo sapiens, UniProt O43603); set-up: CEREP radioligand binding panel, percent inhibition of specific binding
T4 construct: gene GALR2

CCK1 = molecular target: T5, CCK1 (Homo sapiens, UniProt P32238); set-up: CEREP radioligand binding panel, percent inhibition of specific binding
T5 construct: gene CCKAR
T5 sequence (P32238 whole entry): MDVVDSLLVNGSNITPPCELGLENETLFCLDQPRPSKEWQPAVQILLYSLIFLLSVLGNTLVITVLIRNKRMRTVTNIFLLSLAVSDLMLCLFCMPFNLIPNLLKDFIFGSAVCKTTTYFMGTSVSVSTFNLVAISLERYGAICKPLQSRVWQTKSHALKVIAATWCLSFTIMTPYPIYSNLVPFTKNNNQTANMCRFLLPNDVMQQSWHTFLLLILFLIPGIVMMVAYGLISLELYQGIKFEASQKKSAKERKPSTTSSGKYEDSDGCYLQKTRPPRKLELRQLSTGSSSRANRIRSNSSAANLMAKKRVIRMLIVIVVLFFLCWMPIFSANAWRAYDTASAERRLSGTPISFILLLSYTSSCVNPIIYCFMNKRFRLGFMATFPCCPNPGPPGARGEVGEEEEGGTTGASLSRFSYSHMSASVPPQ

Human Eta = molecular target: T6, Human Eta (Homo sapiens, UniProt P25101); set-up: CEREP off-target binding panel, per cent inhibition at 10 uM, n = 2
T6 construct: gene EDNRA

[2] = molecular target: T7, Human norepinephrine transporter (Homo sapiens, UniProt P23975); set-up: CEREP off-target binding panel, per cent inhibition at 10 uM, n = 2
T7 construct: gene SLC6A2

Human B2 = molecular target: T8, Human B2 (Homo sapiens, UniProt P30411); set-up: CEREP off-target binding panel, per cent inhibition at 10 uM, n = 2
T8 construct: gene BDKRB2

Human 5-HT6 = molecular target: T9, Human 5-HT6 (Homo sapiens, UniProt P50406); set-up: CEREP off-target binding panel, per cent inhibition at 10 uM, n = 2
T9 construct: gene HTR6
T9 sequence (P50406 whole entry): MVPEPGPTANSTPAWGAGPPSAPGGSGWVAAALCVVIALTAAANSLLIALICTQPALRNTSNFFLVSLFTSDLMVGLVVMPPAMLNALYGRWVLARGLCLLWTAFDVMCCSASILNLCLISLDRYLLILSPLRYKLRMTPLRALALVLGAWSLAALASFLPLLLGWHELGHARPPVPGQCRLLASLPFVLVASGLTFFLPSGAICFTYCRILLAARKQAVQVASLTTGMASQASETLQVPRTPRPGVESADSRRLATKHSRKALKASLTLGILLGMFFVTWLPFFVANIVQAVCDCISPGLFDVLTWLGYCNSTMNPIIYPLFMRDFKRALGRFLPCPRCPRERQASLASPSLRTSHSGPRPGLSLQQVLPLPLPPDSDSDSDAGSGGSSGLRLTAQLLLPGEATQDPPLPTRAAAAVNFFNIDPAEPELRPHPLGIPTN

Human A3 = molecular target: T10, Human A3 (Homo sapiens, UniProt P0DMS8); set-up: CEREP off-target binding panel, per cent inhibition at 10 uM, n = 2
T10 construct: gene ADORA3

Human NK2 = molecular target: T11, Human NK2 (Homo sapiens, UniProt P21452); set-up: CEREP off-target binding panel, per cent inhibition at 10 uM, n = 2
T11 construct: gene TACR2

Human 5-HT5A = molecular target: T12, Human 5-HT5A (Homo sapiens, UniProt P47898); set-up: CEREP off-target binding panel, per cent inhibition at 10 uM, n = 2
T12 construct: gene HTR5A
T12 sequence (P47898 whole entry): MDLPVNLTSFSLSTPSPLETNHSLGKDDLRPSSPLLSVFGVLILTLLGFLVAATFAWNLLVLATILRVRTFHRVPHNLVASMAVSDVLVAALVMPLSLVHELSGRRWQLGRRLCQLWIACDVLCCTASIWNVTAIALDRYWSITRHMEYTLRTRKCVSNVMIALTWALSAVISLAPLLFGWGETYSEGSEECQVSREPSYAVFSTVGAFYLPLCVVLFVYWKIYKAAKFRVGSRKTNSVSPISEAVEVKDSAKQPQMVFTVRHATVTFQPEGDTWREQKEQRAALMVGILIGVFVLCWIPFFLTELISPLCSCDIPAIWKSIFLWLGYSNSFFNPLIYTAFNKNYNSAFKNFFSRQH

Human 5-HT1B = molecular target: T13, Human 5-HT1B (Homo sapiens, UniProt P28222); set-up: CEREP off-target binding panel, per cent inhibition at 10 uM, n = 2
T13 construct: gene HTR1B
T13 sequence (P28222 whole entry): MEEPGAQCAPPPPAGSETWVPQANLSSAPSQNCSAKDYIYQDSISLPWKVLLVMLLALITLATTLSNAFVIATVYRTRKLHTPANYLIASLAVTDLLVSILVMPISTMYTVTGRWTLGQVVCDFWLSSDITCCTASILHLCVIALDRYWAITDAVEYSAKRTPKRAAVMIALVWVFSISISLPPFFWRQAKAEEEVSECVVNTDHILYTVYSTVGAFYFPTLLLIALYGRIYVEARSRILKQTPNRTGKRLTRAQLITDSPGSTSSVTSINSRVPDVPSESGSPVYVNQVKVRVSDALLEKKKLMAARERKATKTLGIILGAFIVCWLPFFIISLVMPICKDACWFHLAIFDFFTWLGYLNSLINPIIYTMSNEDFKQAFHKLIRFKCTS

Human CB1 = molecular target: T14, Human CB1 (Homo sapiens, UniProt P21554); set-up: CEREP off-target binding panel, per cent inhibition at 10 uM, n = 2
T14 construct: gene CNR1

Human CXCR2 = Human CXCR2 (Homo sapiens, UniProt P25025); set-up: CEREP off-target binding panel, per cent inhibition at 10 uM, n = 2
Human H2 = molecular target: T15, Human H2 (Homo sapiens, UniProt P25021); set-up: CEREP off-target binding panel, per cent inhibition at 10 uM, n = 2
T15 construct: gene HRH2
T15 sequence (P25021 whole entry): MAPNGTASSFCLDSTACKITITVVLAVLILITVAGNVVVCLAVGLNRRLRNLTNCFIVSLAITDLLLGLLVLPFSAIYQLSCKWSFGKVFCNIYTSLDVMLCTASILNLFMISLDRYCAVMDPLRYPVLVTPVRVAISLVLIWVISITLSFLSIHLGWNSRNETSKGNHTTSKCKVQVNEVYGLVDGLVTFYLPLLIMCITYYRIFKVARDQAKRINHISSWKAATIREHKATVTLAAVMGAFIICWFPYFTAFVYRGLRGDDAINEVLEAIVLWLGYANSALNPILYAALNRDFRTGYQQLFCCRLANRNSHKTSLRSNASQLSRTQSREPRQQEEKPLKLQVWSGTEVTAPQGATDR

Human D1 = molecular target: T16, Human D1 (Homo sapiens, UniProt P21728); set-up: CEREP off-target binding panel, per cent inhibition at 10 uM, n = 2
T16 construct: gene DRD1

Human PR = molecular target: T17, Human PR (Homo sapiens, UniProt P06401); set-up: CEREP off-target binding panel, per cent inhibition at 10 uM, n = 2
T17 construct: gene PGR
T17 sequence (P06401 whole entry): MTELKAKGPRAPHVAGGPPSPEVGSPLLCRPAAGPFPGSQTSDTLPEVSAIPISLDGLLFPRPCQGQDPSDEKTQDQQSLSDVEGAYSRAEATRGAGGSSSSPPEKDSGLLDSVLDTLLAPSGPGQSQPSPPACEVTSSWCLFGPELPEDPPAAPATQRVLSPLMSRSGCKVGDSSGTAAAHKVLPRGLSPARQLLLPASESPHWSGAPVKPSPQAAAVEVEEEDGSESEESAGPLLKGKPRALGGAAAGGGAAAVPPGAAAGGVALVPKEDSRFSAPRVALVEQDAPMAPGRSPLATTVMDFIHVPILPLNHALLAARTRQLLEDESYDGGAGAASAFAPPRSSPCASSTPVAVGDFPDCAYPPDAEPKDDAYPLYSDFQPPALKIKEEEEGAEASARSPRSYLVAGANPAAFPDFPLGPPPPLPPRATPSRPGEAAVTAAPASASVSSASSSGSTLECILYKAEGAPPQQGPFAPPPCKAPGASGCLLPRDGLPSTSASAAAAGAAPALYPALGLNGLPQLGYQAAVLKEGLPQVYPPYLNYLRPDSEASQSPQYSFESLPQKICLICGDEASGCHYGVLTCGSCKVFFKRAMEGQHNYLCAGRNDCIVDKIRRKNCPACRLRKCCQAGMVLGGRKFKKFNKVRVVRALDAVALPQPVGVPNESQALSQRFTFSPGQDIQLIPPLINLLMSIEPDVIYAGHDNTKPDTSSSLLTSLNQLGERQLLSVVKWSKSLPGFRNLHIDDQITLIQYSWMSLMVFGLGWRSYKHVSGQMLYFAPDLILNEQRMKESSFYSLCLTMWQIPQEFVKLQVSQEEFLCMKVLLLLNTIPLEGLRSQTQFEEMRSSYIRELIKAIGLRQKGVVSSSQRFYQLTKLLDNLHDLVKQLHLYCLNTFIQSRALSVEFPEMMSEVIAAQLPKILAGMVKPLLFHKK

Human D2s = molecular target: T18, Human D2s (Homo sapiens, UniProt P14416); set-up: CEREP off-target binding panel, per cent inhibition at 10 uM, n = 2
T18 construct: gene DRD2; D2s
T18 sequence (P14416 whole entry): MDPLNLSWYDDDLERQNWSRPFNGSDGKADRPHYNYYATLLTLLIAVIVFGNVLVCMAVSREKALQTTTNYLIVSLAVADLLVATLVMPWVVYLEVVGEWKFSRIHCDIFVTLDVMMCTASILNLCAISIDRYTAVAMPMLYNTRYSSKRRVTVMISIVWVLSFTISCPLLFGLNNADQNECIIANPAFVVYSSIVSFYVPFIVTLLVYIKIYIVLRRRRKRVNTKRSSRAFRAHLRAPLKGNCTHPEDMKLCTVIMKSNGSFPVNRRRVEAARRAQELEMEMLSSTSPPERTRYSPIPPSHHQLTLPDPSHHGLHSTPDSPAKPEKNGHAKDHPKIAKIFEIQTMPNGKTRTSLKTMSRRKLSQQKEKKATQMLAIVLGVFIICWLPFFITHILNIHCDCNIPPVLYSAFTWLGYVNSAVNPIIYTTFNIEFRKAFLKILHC

Human DOP = molecular target: T19, Human DOP (Homo sapiens, UniProt P41143); set-up: CEREP off-target binding panel, per cent inhibition at 10 uM, n = 2
T19 construct: gene OPRD1

Human Y2 = molecular target: T20, Human Y2 (Homo sapiens, UniProt P49146); set-up: CEREP off-target binding panel, per cent inhibition at 10 uM, n = 2
T20 construct: gene NPY2R
T20 sequence (P49146 whole entry): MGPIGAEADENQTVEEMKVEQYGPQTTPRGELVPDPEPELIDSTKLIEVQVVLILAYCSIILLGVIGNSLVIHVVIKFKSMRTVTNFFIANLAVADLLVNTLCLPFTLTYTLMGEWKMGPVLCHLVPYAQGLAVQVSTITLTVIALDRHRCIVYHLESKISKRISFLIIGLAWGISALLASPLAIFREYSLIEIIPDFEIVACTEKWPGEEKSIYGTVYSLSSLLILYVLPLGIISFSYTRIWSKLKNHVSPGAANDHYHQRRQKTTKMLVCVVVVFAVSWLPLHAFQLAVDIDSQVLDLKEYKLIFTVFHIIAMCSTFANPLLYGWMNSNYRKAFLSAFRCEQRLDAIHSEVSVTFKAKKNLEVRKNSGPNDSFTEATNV

SMILES	inhibition at 10 µM [1] [%]	inhibition at 10 µM (Human 5-HT transporter) [%]	inhibition at 10 µM (MT1) [%]	inhibition at 10 µM (GAL2) [%]	inhibition at 10 µM (CCK1) [%]	inhibition at 10 µM (Human Eta) [%]	inhibition at 10 µM [2] [%]	inhibition at 10 µM (Human B2) [%]	inhibition at 10 µM (Human 5-HT6) [%]	inhibition at 10 µM (Human A3) [%]	inhibition at 10 µM (Human NK2) [%]	inhibition at 10 µM (Human 5-HT5A) [%]	inhibition at 10 µM (Human 5-HT1B) [%]	inhibition at 10 µM (Human CB1) [%]	inhibition at 10 µM (Human CXCR2) [%]	inhibition at 10 µM (Human H2) [%]	inhibition at 10 µM (Human D1) [%]	inhibition at 10 µM (Human PR) [%]	inhibition at 10 µM (Human D2s) [%]	inhibition at 10 µM (Human DOP) [%]	further results
O=C(c1cnc2c(-c3cnco3)cc(C(F)(F)F)cn12)N1C2CCC1COC2 [compound 1, (3-oxa-8-azabicyclo[3.2.1]octan-8-yl)(8-(oxazol-5-yl)-6-(trifluoromethyl)imidazo[1,2-a]pyridin-3-yl)methanone]	2.1	1.2	1.7	-7.2	7.1	-25.8	-14.5	6.9	-0.7	23.3	-7.9	-12.5	-8.4	-34.7	-11.3	-6.2	2.4	2	-15.2	-6.2	IC50 (CYP2C9): > 50 µM; IC50 (CYP1A2): 6.29 µM; IC50 (CYP2C19): > 50 µM; IC50 (CYP2C8): > 50 µM; IC50 (CYP2B6): > 50 µM; inhibition at 10 µM (Human Y2): -3.7%
O=C(c1cccnc1-c1ccncn1)N1CCC(O)(Cc2ccc(F)cc2)CC1 [compound 2, (4-(4-fluorobenzyl)-4-hydroxypiperidin-1-yl)(2-(pyrimidin-4-yl)pyridin-3-yl)methanone]	13.8	0.1	8.3	0	-4.7	-35.5	-3.6	8.4	0.9	5.4	-1.4	9.6	-13.3	-9.2	-1.5	-5.4	-5.3	-4.7	-15.4	-5.8	IC50 (CYP2C9; read-out: compound 2): > 50 µM; IC50 (CYP1A2; read-out: compound 2): > 50 µM; IC50 (CYP2C19; read-out: compound 2): > 50 µM; IC50 (CYP2C8; read-out: compound 2): > 50 µM; IC50 (CYP2B6; read-out: compound 2): > 50 µM; inhibition at 10 µM (Human Y2): 6.8%
